Measurements: patent US6743892B1, “Molecules that home to a selected organ in vivo” (La Jolla Cancer Research Foundation, priority 1995, dated 2004)
Bridge positions count the residues as written; N and C are the ends. Ends that are not written are not given here.

How the values were obtained:
brain [1] = test: 125I-peptide/RBC complex homing to brain and kidney, with or without unlabeled peptide; format: in vivo, mouse; details: 10 mM unlabeled peptide coadministered
Experimental: The synthetic cyclic CLSSRLDAC (SEQ ID NO: 3) peptide (1 mg) was labeled with iodine-125 using the Bolton and Hunter reagent (Amersham; Arlington Heights Ill.). Labeled peptide was purified by reverse phase HPLC on Sep-Pak™ cartridges (Waters, Millipore Corp.; Milford Pa.) and the ^125I-peptide (200 μg) was coupled to 1 ml glutaraldehyde-stabilized sheep RBC (Sigma Chemical Co.; St. Louis Mo.) according to the manufacturer's instructions.
After 2 min, each mouse was perfused through the heart with 50 ml DMEM and the brain and kidney were removed and assayed for radioactivity.
Approximately twice as much of the CLSSRLDAC/RBC complex (SEQ ID NO: 3) homed to brain than to kidney. […] Coadministration of unlabeled CVRLNSLAC (SEQ ID NO: 43) had no effect on selective homing of the complex to brain and no effect on the non-specific localization of the complex in the kidney.

brain [2] = test: Peptide competition of phage homing to brain; format: in vivo, mice; details: 100 μg synthetic cyclic peptide injected with 1×10^8 TU phage
Experimental: In order to confirm the specificity of a peptide for directing homing to a selected organ, peptide competition experiments were performed. The cyclic peptide, CLSSRLDAC (SEQ ID NO: 3), which is one of the brain homing peptides (see Table 1) was synthesized (Immunodynamics; La Jolla Calif.) and purified by HPLC. The effect on the homing of phage expressing CLSSRLDAC (SEQ ID NO: 3), CENWWGDVC (SEQ ID NO: 2) or […] (SEQ ID NO: 16) to the brain was examined in order to determine whether co-administration of the synthetic peptide affected homing of the phage.
Phage expressing CLSSRLDAC (SEQ ID NO: 3), CENWWGDVC (SEQ ID NO: 2) or […] (SEQ ID NO: 16) were titrated to the same concentration and 1×10^8 TU was injected into mice alone, or with 100 μg purified synthetic cyclic CLSSRLDAC (SEQ ID NO: 3) peptide. The synthetic CLSSRLDAC (SEQ ID NO: 3) peptide inhibited the homing of phage expressing CLSSRLDAC (SEQ ID NO: 3) by about 60%.

brain [3] = test: Brain homing activity (test not described); details: in vivo

Row | Sequence | effect of coadministration on brain homing of the CLSSRLDAC/RBC complex (brain [1]) | effect of coadministration on localization of the CLSSRLDAC/RBC complex in the kidney (brain [1]) | effect on homing to brain of CENWWGDVC phage (brain [2]) | inhibition of homing to brain of phage expressing CLSSRLDAC (brain [2]) | brain homing activity (brain [3])
1 | CLSSRLDAC (disulfide 1-9 (inferred)) | essentially completely inhibited | no effect | did not affect | about 60% | 
2 | CVRLNSLAC [reference compound] | no effect | no effect |  |  | no brain homing activity
